Reference: the supplement of paper PMC10307832

Legend:
Assay in all cases: relative viability (nuclei count vs DMSO), 5 days (fraction); higher = more cells survive
[1] = compound: CN(C/C=C/C1=CC=C(C=C1)Cl)CC2=CC=CC=C2N(CCO)S(=O)(=O)C3=CC=C(C=C3)OC [KN-93]
Method in brief: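 Vehicle-anchored 1536-well plates of lung cancer cell lines, held overnight at 37 °C, were pinned with five library-drug doses (not always all listed) spaced by √10. No medium change followed over the next 5 days, after which the cells were fixed, permeabilised and Hoechst-stained together and imaged at 4×. Nuclei were counted with MetaXpress, and viability is treated-well nuclei over vehicle-well nuclei, taken as a median across plates. Plates passed with control CV below 25% and at least one doubling.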

[2] = compound: CN(C/C=C/C1=CC=C(C=C1)Cl)CC2=CC=CC=C2N(CCO)S(=O)(=O)C3=CC=C(C=C3)OC [KN-93] + CC(=O)Nc1cccc(-n2c(=O)n(C3CC3)c(=O)c3c(Nc4ccc(I)cc4F)n(C)c(=O)c(C)c32)c1 [Trametinib] (partner 0.02 µM)
Method in brief: (§1)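 For relative viability, nuclei counts in treated wells were divided by those in vehicle wells. Lung cancer cell lines had been pin-tool dosed in 1536-well plates the day after seeding and cultured for 5 days, then fixed and stained in one step (final 0.05% Triton X-100, 1% formaldehyde, 1 ug/ml Hoechst) and imaged at 4×. Doses were one drug alone or a fixed anchor-drug dose plus five library-drug doses (not always all listed) in √10 steps, and values are duplicate-plate medians.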

[3] = compound: CN(C/C=C/C1=CC=C(C=C1)Cl)CC2=CC=CC=C2N(CCO)S(=O)(=O)C3=CC=C(C=C3)OC [KN-93] + CS(=O)(=O)CCNCc1ccc(-c2ccc3ncnc(Nc4ccc(OCc5cccc(F)c5)c(Cl)c4)c3c2)o1 [Lapatinib] (partner 2 µM)
Method in brief: as §1

[4] = compound: CN(C/C=C/C1=CC=C(C=C1)Cl)CC2=CC=CC=C2N(CCO)S(=O)(=O)C3=CC=C(C=C3)OC [KN-93] + NC(=O)Nc1cc(-c2cccc(F)c2)sc1C(=O)N[C@H]1CCCNC1 [AZD7762] (partner 0.2 µM)
Method in brief: as §1

[5] = compound: CN(C/C=C/C1=CC=C(C=C1)Cl)CC2=CC=CC=C2N(CCO)S(=O)(=O)C3=CC=C(C=C3)OC [KN-93] + O=C(CCCCCCC(=O)Nc1ccccc1)NO [Vorinostat] (partner 1 µM)
Method in brief: as §1

Cell Line	relative viability ([1]; 0.08 µM)	relative viability ([1]; 0.253 µM)	relative viability ([1]; 2.53 µM)	relative viability ([1]; 8 µM)	relative viability ([2]; first compound 0.08 µM)	relative viability ([2]; first compound 0.253 µM)	relative viability ([2]; first compound 2.53 µM)	relative viability ([2]; first compound 8 µM)	relative viability ([3]; first compound 0.08 µM)	relative viability ([3]; first compound 0.253 µM)	relative viability ([3]; first compound 2.53 µM)	relative viability ([3]; first compound 8 µM)	relative viability ([4]; first compound 0.08 µM)	relative viability ([4]; first compound 0.253 µM)	relative viability ([4]; first compound 2.53 µM)	relative viability ([4]; first compound 8 µM)	relative viability ([5]; first compound 0.08 µM)	relative viability ([5]; first compound 0.253 µM)	relative viability ([5]; first compound 2.53 µM)	relative viability ([5]; first compound 8 µM)
HOP-62	1.06	1.07	1.17	0.733	0.358	0.378	0.375	0.276	0.94	1.23	0.985	1	0.476	0.499	0.797	0.458	0.557	0.824	0.748	0.487
NCI-H358	0.834	1.04	0.916	0.539	0.147	0.133	0.132	0.112	0.49	0.528	0.444	0.291	0.474	0.473	0.465	0.424	0.659	0.79	0.824	0.459
NCI-H1944	0.885	0.885	0.942	0.803	0.419	0.385	0.432	0.328	0.84	0.793	0.96	0.771	0.527	0.433	0.585	0.579	0.502	0.627	0.522	0.249
HCC-78	0.941	0.828	1.04	0.744	0.708	0.68	0.808	0.711	0.881	0.703	1.02	0.21	0.623	0.506	0.622	0.653	0.465	0.405	0.739	0.381
LCLC-97TM1	0.975	1.29	1.09	0.601	0.185	0.181	0.163	0.153	1.06		1.12	0.425	0.289	0.279	0.198	0.224	0.629	0.723	0.637	0.437
NCI-H1755	0.915	1.03	1.03	0.758	0.717	0.827	0.76	0.699	1.02	1.26	1.04	0.561	0.392	0.411	0.444	0.407	0.844	0.835	0.856	0.511
LXF-289	0.942	1.07	1.02	0.828	0.661	0.69	0.666	0.592	0.845	0.934	1	0.737	0.813	1.15	1.18	0.978	0.661	0.839	0.716	0.546
RERF-LC-KJ	0.915	1.05	0.967	0.693	0.924	0.869	0.83	0.624	0.803	0.81	1.01	0.776	0.707	0.898	1	0.753	0.785	0.643	0.696	0.577
NCI-H1666	0.969	0.921	0.995	0.875	0.899	0.788	1.07	0.716	0.747	0.638	0.679	0.532	0.863	0.874	0.802	0.788	1.07	1.1	1.04	1.06
LC-2-ad	0.965	1.16	0.995	0.725	0.794	0.989	0.88	0.75	0.952	1.21	0.997	0.673	0.775	0.958	0.953	0.785	0.688	0.801	0.746	0.582
LOU-NH91	0.988	0.834	0.963	0.842	0.789	0.677	0.822	0.716	0.761	0.575	0.886	0.692	0.731	0.659	0.802	0.623	0.957	0.835	0.903	0.8
NCI-H1915	0.952	1.24	0.993	0.947	0.304	0.339	0.281	0.247	0.963	1.25	1.01	0.908	0.67	0.735	0.632	0.671	0.496	0.607	0.608	0.491
EMC-BAC-2	1.05	1.04	1.08	0.794	0.912	0.826	0.945	0.714	0.852	0.956	0.943	0.625	1.22	1.28	1.2	0.872	0.51	0.534	0.399	0.345
HCC-15	0.862	1.03	1.08	0.893	0.359	0.367	0.348	0.306	0.625	1.01	1.02	0.685	1.18	1.24	1.38	1	0.773	0.877	0.932	0.738
EPLC-272H	0.899	0.965	0.92	0.59	0.289	0.279	0.283	0.23	0.925	1.03	0.981	0.774	0.195	0.2	0.527	0.347	0.436	0.212	0.274	0.152
